Source: ChEMBL document CHEMBL1201862, “PubChem BioAssay data set” (2004)
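How tested: cells in 96-well plates exposed to compound for 48 hours at five concentrations. GI50 marks 50% less growth.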 Calls of active or inactive are those of the source. Cut-off read from the data, not from the text of the source: active = GI50 up to about 1.1 µM and inactive = higher.

Legend:
Experiment in all cases: NCI-60 cell line screen, 48 h
HT-29 = system: HT-29
HL-60 = system: HL-60
SF-295 = system: SF-295
SR = system: SR
RXF 393 = system: RXF 393
A549 = system: A549
SW-620 = system: SW-620
NCI-H460 = system: NCI-H460
SN12C = system: SN12C
OVCAR-3 = system: OVCAR-3
SK-MEL-2 = system: SK-MEL-2
UACC-257 = system: UACC-257
SK-MEL-28 = system: SK-MEL-28
UO-31 = system: UO-31
A498 = system: A498
SF-268 = system: SF-268
SNB-75 = system: SNB-75
TK-10 = system: TK-10

| SMILES | GI50 (HT-29) | GI50 (HL-60) | GI50 (SF-295) | GI50 (SR) | GI50 (RXF 393) | GI50 (A549) | GI50 (SW-620) | GI50 (NCI-H460) | GI50 (SN12C) | GI50 (OVCAR-3) | GI50 (SK-MEL-2) | GI50 (UACC-257) | GI50 (SK-MEL-28) | GI50 (UO-31) | GI50 (A498) | GI50 (SF-268) | GI50 (SNB-75) | GI50 (TK-10) |
| --- | --- | --- | --- | --- | --- | --- | --- | --- | --- | --- | --- | --- | --- | --- | --- | --- | --- | --- |
| CCOC(=O)N[C@H]1CCc2cc(O)c(OC)c(OC)c2-c2ccc(SC)c(=O)cc21 | < 0.0135 µM (active) | < 0.01 µM (active) | 0.0123 µM (active) | 0.0345 µM (active) | < 0.01 µM (active) | 0.0289 µM (active) | < 0.0137 µM (active) | 0.0172 µM (active) | 0.046 µM (active) | 0.0123 µM (active) | < 0.0149 µM (active) | < 0.0491 µM (active) | < 0.029 µM (active) | 0.736 µM (active) | 0.0208 µM (active) | 0.0207 µM (active) | < 0.01 µM (active) | 0.394 µM (active) |
| CN1CCN(CCSC2Cc3cc(Cl)ccc3Sc3ccccc32)CC1 (centres undefined) | 1.63 µM (inactive) | 1.73 µM (inactive) | 4.18 µM (inactive) | 5.07 µM (inactive) | 4.19 µM (inactive) | 6.05 µM (inactive) | 2.81 µM (inactive) | 4.95 µM (inactive) | 9.12 µM (inactive) | 8.2 µM (inactive) | 1.86 µM (inactive) | 1.9 µM (inactive) | 1.86 µM (inactive) | 8.11 µM (inactive) | 6.41 µM (inactive) | 8.47 µM (inactive) | 5.82 µM (inactive) | 5.13 µM (inactive) |
| CCOc1ccc(NC2=NC(=O)C(CC(=O)Nc3ccc(Cl)cc3Cl)S2)cc1 (centres undefined) | > 100 µM (inactive) | – | > 100 µM (inactive) | – | – | > 100 µM (inactive) | > 100 µM (inactive) | > 100 µM (inactive) | > 100 µM (inactive) | > 100 µM (inactive) | > 100 µM (inactive) | > 100 µM (inactive) | > 100 µM (inactive) | > 100 µM (inactive) | 68.7 µM (inactive) | > 100 µM (inactive) | > 100 µM (inactive) | > 100 µM (inactive) |
| FC(F)(F)c1ccccc1C1SCc2nc3ccccc3n21 (centres undefined) | 33.8 µM (inactive) | 10.2 µM (inactive) | 57.1 µM (inactive) | 27.9 µM (inactive) | 91.8 µM (inactive) | 41.6 µM (inactive) | > 100 µM (inactive) | – | 31.6 µM (inactive) | 40.1 µM (inactive) | 99.3 µM (inactive) | 26.1 µM (inactive) | 77.8 µM (inactive) | 49.7 µM (inactive) | 12.3 µM (inactive) | 61.9 µM (inactive) | > 100 µM (inactive) | > 100 µM (inactive) |
| COc1ccc(NC(=O)C(=O)C2CNC(=O)NC2=O)c(OC)c1 (centres undefined) | > 100 µM (inactive) | > 100 µM (inactive) | > 100 µM (inactive) | > 100 µM (inactive) | > 100 µM (inactive) | > 100 µM (inactive) | > 100 µM (inactive) | > 100 µM (inactive) | > 100 µM (inactive) | > 100 µM (inactive) | > 100 µM (inactive) | > 100 µM (inactive) | > 100 µM (inactive) | > 100 µM (inactive) | – | > 100 µM (inactive) | > 100 µM (inactive) | > 100 µM (inactive) |
| COc1cc2ccc(CC(=O)O)cc2cc1OC | > 100 µM (inactive) | > 100 µM (inactive) | – | > 100 µM (inactive) | > 100 µM (inactive) | > 100 µM (inactive) | > 100 µM (inactive) | – | > 100 µM (inactive) | > 100 µM (inactive) | > 100 µM (inactive) | > 100 µM (inactive) | > 100 µM (inactive) | > 100 µM (inactive) | > 100 µM (inactive) | > 100 µM (inactive) | > 100 µM (inactive) | > 100 µM (inactive) |
| COC(=O)[C@@]12CC(C(C)C)[C@H]3CC(C(=O)C=C1OC)[C@H]32 (some centres undefined) | > 100 µM (inactive) | > 100 µM (inactive) | > 100 µM (inactive) | – | > 100 µM (inactive) | > 100 µM (inactive) | > 100 µM (inactive) | > 100 µM (inactive) | > 100 µM (inactive) | > 100 µM (inactive) | > 100 µM (inactive) | > 100 µM (inactive) | > 100 µM (inactive) | – | > 100 µM (inactive) | > 100 µM (inactive) | > 100 µM (inactive) | > 100 µM (inactive) |
| Cc1ccc(C(=O)c2nnc(C(=O)c3ccc(C)cc3)nn2)cc1 | 61.9 µM (inactive) | 19.7 µM (inactive) | 52.8 µM (inactive) | 5.45 µM (inactive) | – | 73.5 µM (inactive) | 20.8 µM (inactive) | 18.4 µM (inactive) | 45.3 µM (inactive) | 43.4 µM (inactive) | 38.4 µM (inactive) | 58.3 µM (inactive) | 51.3 µM (inactive) | 39.2 µM (inactive) | – | 21 µM (inactive) | > 100 µM (inactive) | 78.3 µM (inactive) |
| Oc1ccccc1/C=N/c1ccccc1/N=C/c1ccccc1O | > 100 µM (inactive) | 15 µM (inactive) | 88.9 µM (inactive) | 19.5 µM (inactive) | – | > 100 µM (inactive) | > 100 µM (inactive) | 62.8 µM (inactive) | > 100 µM (inactive) | 36.6 µM (inactive) | – | 38.7 µM (inactive) | > 100 µM (inactive) | – | – | 88.1 µM (inactive) | – | > 100 µM (inactive) |
| Cc1ccc(-c2c(N)nc(NC#N)nc2CCC(=O)Nc2ccccc2[N+](=O)[O-])cc1 | > 100 µM (inactive) | > 100 µM (inactive) | > 100 µM (inactive) | > 100 µM (inactive) | > 100 µM (inactive) | > 100 µM (inactive) | > 100 µM (inactive) | > 100 µM (inactive) | > 100 µM (inactive) | > 100 µM (inactive) | > 100 µM (inactive) | > 100 µM (inactive) | > 100 µM (inactive) | > 100 µM (inactive) | > 100 µM (inactive) | > 100 µM (inactive) | > 100 µM (inactive) | > 100 µM (inactive) |
| CCOC(=O)N1c2c(ccn2C)-c2ccn(C)c2N1C(=O)OCC | 15.7 µM (inactive) | 5.09 µM (inactive) | 15.3 µM (inactive) | 15.8 µM (inactive) | – | 20.9 µM (inactive) | 15.2 µM (inactive) | 19.4 µM (inactive) | 15.8 µM (inactive) | 14.1 µM (inactive) | 21.4 µM (inactive) | > 10 µM (inactive) | – | 19.8 µM (inactive) | 44.1 µM (inactive) | 19.1 µM (inactive) | 15.5 µM (inactive) | – |
| NC(=O)c1cc(C2OC(CO)C(O)C2O)nn1-c1ccc([N+](=O)[O-])cc1 (centres undefined) | > 100 µM (inactive) | > 100 µM (inactive) | > 100 µM (inactive) | – | > 100 µM (inactive) | > 100 µM (inactive) | 43.3 µM (inactive) | > 100 µM (inactive) | > 100 µM (inactive) | > 100 µM (inactive) | > 100 µM (inactive) | > 100 µM (inactive) | > 100 µM (inactive) | > 100 µM (inactive) | > 100 µM (inactive) | > 100 µM (inactive) | > 100 µM (inactive) | > 100 µM (inactive) |
| N=CCCN(CCC=N)c1ccc(/C=C2\CN(NC(=O)c3ccc(Cl)cc3)C(c3ccccc3)=N2)cc1 | > 100 µM (inactive) | > 100 µM (inactive) | > 100 µM (inactive) | – | – | > 100 µM (inactive) | 15.6 µM (inactive) | > 100 µM (inactive) | > 100 µM (inactive) | > 100 µM (inactive) | > 100 µM (inactive) | > 100 µM (inactive) | > 100 µM (inactive) | > 100 µM (inactive) | > 100 µM (inactive) | > 100 µM (inactive) | > 100 µM (inactive) | > 100 µM (inactive) |
| COC(=O)C1(O)CC(=O)CCC1c1ccc(OC)cc1 (centres undefined) | > 100 µM (inactive) | > 100 µM (inactive) | > 100 µM (inactive) | > 100 µM (inactive) | – | > 100 µM (inactive) | > 100 µM (inactive) | > 100 µM (inactive) | > 100 µM (inactive) | > 100 µM (inactive) | > 100 µM (inactive) | > 100 µM (inactive) | > 100 µM (inactive) | > 100 µM (inactive) | > 100 µM (inactive) | > 100 µM (inactive) | > 100 µM (inactive) | > 100 µM (inactive) |
| CCN1C(=O)C/C(=C\C(C)=O)Nc2ccccc21 | > 100 µM (inactive) | – | > 100 µM (inactive) | > 100 µM (inactive) | > 100 µM (inactive) | > 100 µM (inactive) | > 100 µM (inactive) | > 100 µM (inactive) | 0.166 µM (active) | > 100 µM (inactive) | > 100 µM (inactive) | – | > 100 µM (inactive) | > 100 µM (inactive) | – | > 100 µM (inactive) | 21.5 µM (inactive) | > 100 µM (inactive) |
| O=C(O)CN(c1ccccc1)S(=O)(=O)c1ccc(Cl)cc1 | > 100 µM (inactive) | > 100 µM (inactive) | – | – | > 100 µM (inactive) | > 100 µM (inactive) | > 100 µM (inactive) | > 100 µM (inactive) | > 100 µM (inactive) | – | > 100 µM (inactive) | > 100 µM (inactive) | > 100 µM (inactive) | > 100 µM (inactive) | > 100 µM (inactive) | > 100 µM (inactive) | 59 µM (inactive) | > 100 µM (inactive) |
| C[C@@H]1O[C@@H](O[C@H]2[C@H](Oc3cc(O)c4c(=O)cc(-c5ccc(O)cc5)oc4c3)O[C@H](CO)[C@@H](O)[C@@H]2O)[C@H](O)[C@H](O)[C@H]1O [RHOIFOLIN] | > 100 µM (inactive) | > 100 µM (inactive) | > 100 µM (inactive) | – | – | > 100 µM (inactive) | – | > 100 µM (inactive) | > 100 µM (inactive) | > 100 µM (inactive) | > 100 µM (inactive) | > 100 µM (inactive) | > 100 µM (inactive) | > 100 µM (inactive) | > 100 µM (inactive) | > 100 µM (inactive) | > 100 µM (inactive) | > 100 µM (inactive) |
